Test results from ChEMBL document CHEMBL1201862, “PubChem BioAssay data set” (2004).
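Each compound was tested at five concentrations against cells in 96-well plates for 48 hours. Here, GI50 denotes the concentration required for 50% inhibition of growth.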 Calls of active or inactive are those of the source. No stated cut-off is given here; in the data, active = GI50 up to about 1.1 µM and inactive = higher.

Assays:
Assay in all cases: DTP human tumour cell line panel, 48 h
M19-MEL = system: M19-MEL
HOP-18 = system: HOP-18
SNB-78 = system: SNB-78
KM-20L2 = system: KM-20L2
DMS-273 = system: DMS-273
RXF 631 = system: RXF 631
Hs-578T = system: Hs-578T
MDA-N = system: MDA-N
T47D = system: T47D

CCN(CC)C(=O)COc1ccc(Br)cc1Br
GI50 (M19-MEL): > 100 µM (inactive) | GI50 (HOP-18): > 100 µM (inactive) | GI50 (SNB-78): > 100 µM (inactive) | GI50 (KM-20L2): > 100 µM (inactive) | GI50 (DMS-273): > 100 µM (inactive) | GI50 (RXF 631): > 100 µM (inactive)

CC1(C)CCC[C@@]2(C)C1CCC1(C)C(CCc3ccoc3)/C(=C/OS(=O)(=O)O)CCC12 (some centres not stated)
GI50 (M19-MEL): > 100 µM (inactive) | GI50 (HOP-18): > 100 µM (inactive) | GI50 (SNB-78): 45.2 µM (inactive) | GI50 (KM-20L2): 38.2 µM (inactive) | GI50 (DMS-273): > 100 µM (inactive) | GI50 (RXF 631): > 100 µM (inactive)

CCCC(=O)OC1C(C(O)CO)OC2OC(C)(C)OC21 (configuration not stated)
GI50 (Hs-578T): > 100 µM (inactive) | GI50 (M19-MEL): > 100 µM (inactive) | GI50 (MDA-N): > 100 µM (inactive) | GI50 (HOP-18): > 100 µM (inactive) | GI50 (SNB-78): > 100 µM (inactive) | GI50 (KM-20L2): > 100 µM (inactive) | GI50 (DMS-273): > 100 µM (inactive) | GI50 (T47D): > 100 µM (inactive)

CC(C)(c1ccc(C=O)o1)c1ccc(C(C)(C)c2ccc(C=O)o2)o1
GI50 (HOP-18): > 100 µM (inactive) | GI50 (SNB-78): > 100 µM (inactive) | GI50 (KM-20L2): > 100 µM (inactive) | GI50 (DMS-273): > 100 µM (inactive) | GI50 (RXF 631): > 100 µM (inactive)

COc1cccc(NC(=O)C(=O)C(C(C)=O)c2nc3ccc(Cl)cc3nc2O)c1 (configuration not stated)
GI50 (M19-MEL): > 100 µM (inactive) | GI50 (HOP-18): > 100 µM (inactive) | GI50 (SNB-78): > 100 µM (inactive) | GI50 (KM-20L2): > 100 µM (inactive) | GI50 (DMS-273): > 100 µM (inactive) | GI50 (RXF 631): > 100 µM (inactive)

O=C(NC(=O)c1cn(CCN(CCO)C(=O)NCCCCCCNC(=O)N(CCO)CCn2cc(C(=O)NC(=O)OCc3ccccc3)c(=O)[nH]c2=O)c(=O)[nH]c1=O)OCc1ccccc1
GI50 (M19-MEL): > 100 µM (inactive) | GI50 (HOP-18): > 100 µM (inactive) | GI50 (SNB-78): > 100 µM (inactive) | GI50 (KM-20L2): > 100 µM (inactive) | GI50 (DMS-273): > 100 µM (inactive) | GI50 (RXF 631): > 100 µM (inactive)

CC1(C)COC(c2cccc3c2C(=O)c2cccc(Cl)c2-3)=N1
GI50 (SNB-78): 97.1 µM (inactive) | GI50 (KM-20L2): 39.9 µM (inactive) | GI50 (DMS-273): 51.4 µM (inactive) | GI50 (RXF 631): 74.3 µM (inactive)

C=C(CN(C)C)C(=O)c1ccccc1
GI50 (Hs-578T): 26.2 µM (inactive) | GI50 (M19-MEL): 9.33 µM (inactive) | GI50 (MDA-N): 14.2 µM (inactive) | GI50 (HOP-18): 3.52 µM (inactive) | GI50 (SNB-78): 22.2 µM (inactive) | GI50 (KM-20L2): 19.1 µM (inactive) | GI50 (DMS-273): 13.7 µM (inactive) | GI50 (RXF 631): 24.1 µM (inactive) | GI50 (T47D): 2.25 µM (inactive)

N#CCc1ccc(C(C#N)/C(CCCC(=O)Nc2cccc([N+](=O)[O-])c2)=N/NC(N)=S)cc1 (configuration not stated)
GI50 (HOP-18): > 100 µM (inactive) | GI50 (SNB-78): 57.7 µM (inactive) | GI50 (KM-20L2): > 100 µM (inactive) | GI50 (DMS-273): > 100 µM (inactive) | GI50 (RXF 631): 86.5 µM (inactive)

CCOC(=O)Nc1nc2cc(Cn3cccc3)ccc2[nH]1
GI50 (Hs-578T): 0.857 µM (active) | GI50 (M19-MEL): 6.37 µM (inactive) | GI50 (MDA-N): 0.157 µM (active) | GI50 (HOP-18): 4.52 µM (inactive) | GI50 (SNB-78): 8.99 µM (inactive) | GI50 (KM-20L2): 3.25 µM (inactive) | GI50 (DMS-273): 3.66 µM (inactive) | GI50 (RXF 631): > 22.3 µM (inactive)

O=C1C(Br)=C[C@H]2C3C=CC(Br)(C3=O)[C@@H]12 (some centres not stated)
GI50 (M19-MEL): 11.8 µM (inactive) | GI50 (HOP-18): 49.4 µM (inactive) | GI50 (SNB-78): 94.8 µM (inactive) | GI50 (KM-20L2): 4.84 µM (inactive) | GI50 (DMS-273): 12.8 µM (inactive) | GI50 (RXF 631): 14.4 µM (inactive)

Cc1ccc(S(=O)(=O)SCc2ccccc2CSS(=O)(=O)c2ccc(C)cc2)cc1
GI50 (M19-MEL): 23.5 µM (inactive) | GI50 (HOP-18): > 100 µM (inactive) | GI50 (SNB-78): 20.1 µM (inactive) | GI50 (KM-20L2): 78.3 µM (inactive) | GI50 (DMS-273): 21.1 µM (inactive) | GI50 (RXF 631): > 100 µM (inactive)

O=C(C(=O)c1ccc(Cc2ccc(C(=O)C(=O)c3ccccc3)cc2)cc1)c1ccccc1
GI50 (M19-MEL): > 100 µM (inactive) | GI50 (HOP-18): > 100 µM (inactive) | GI50 (SNB-78): > 100 µM (inactive) | GI50 (KM-20L2): > 100 µM (inactive) | GI50 (DMS-273): > 100 µM (inactive) | GI50 (RXF 631): > 100 µM (inactive)

COc1ccc2c(c1)C=C(C(C)(C)C)NS2(=O)=O
GI50 (M19-MEL): > 100 µM (inactive) | GI50 (HOP-18): > 100 µM (inactive) | GI50 (SNB-78): > 100 µM (inactive) | GI50 (KM-20L2): > 100 µM (inactive) | GI50 (DMS-273): > 100 µM (inactive) | GI50 (RXF 631): > 100 µM (inactive)

CN(C)CC/C(=N\Nc1ccc(Cl)cc1)c1ccccc1
GI50 (M19-MEL): 1.7 µM (inactive) | GI50 (HOP-18): 2.13 µM (inactive) | GI50 (SNB-78): 1.38 µM (inactive) | GI50 (KM-20L2): 0.176 µM (active) | GI50 (DMS-273): 0.366 µM (active)

CCCn1c(SCC)c2cc3cc4ccccc4cc3cc2c1-c1nc(F)nc(F)n1
GI50 (M19-MEL): > 100 µM (inactive) | GI50 (SNB-78): > 100 µM (inactive) | GI50 (KM-20L2): > 100 µM (inactive) | GI50 (DMS-273): > 100 µM (inactive) | GI50 (RXF 631): > 100 µM (inactive)

N#CC(C#N)C(c1ccccc1)c1ccccc1
GI50 (HOP-18): > 100 µM (inactive) | GI50 (SNB-78): > 100 µM (inactive) | GI50 (KM-20L2): > 100 µM (inactive) | GI50 (DMS-273): > 100 µM (inactive) | GI50 (RXF 631): > 100 µM (inactive)

CCOc1ccc(NC(=O)C2=C(C)NC(C)=C(C(=O)Nc3ccc(OCC)cc3)C2c2ccccc2)cc1
GI50 (M19-MEL): > 100 µM (inactive) | GI50 (SNB-78): > 100 µM (inactive) | GI50 (KM-20L2): 67 µM (inactive) | GI50 (DMS-273): > 100 µM (inactive) | GI50 (RXF 631): > 100 µM (inactive)

CC(=O)C1C(c2ccc(N(C)C)cc2)c2cc3c(cc2OC1(C)O)OCO3 (configuration not stated)
GI50 (M19-MEL): 45.2 µM (inactive) | GI50 (HOP-18): 68.9 µM (inactive) | GI50 (SNB-78): 56 µM (inactive) | GI50 (KM-20L2): 6.85 µM (inactive) | GI50 (DMS-273): 29.4 µM (inactive)

CC(=O)OCC1OC(n2cc(F)c(=O)[nH]c2=O)C(NC(=O)N(CCCl)N=O)C(OC(C)=O)C1OC(C)=O (configuration not stated)
GI50 (M19-MEL): > 100 µM (inactive) | GI50 (HOP-18): > 100 µM (inactive) | GI50 (SNB-78): > 100 µM (inactive) | GI50 (KM-20L2): > 100 µM (inactive) | GI50 (DMS-273): > 100 µM (inactive)

O=C(N/C(=C\c1ccccc1O)c1nc2ccccc2[nH]1)c1ccccc1
GI50 (M19-MEL): > 100 µM (inactive) | GI50 (HOP-18): 63.5 µM (inactive) | GI50 (SNB-78): 43.5 µM (inactive) | GI50 (KM-20L2): > 100 µM (inactive) | GI50 (DMS-273): 56.6 µM (inactive)
